The results in this text go back to ChEMBL document CHEMBL1201862, “PubChem BioAssay data set” (2004).

In general, GI50 refers to the concentration giving 50% growth inhibition.

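Test compounds were applied to cells in 96-well plates for 48 hours at 5 doses. GI50: concentration for 50% inhibition of growth.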 Calls of active or inactive are those of the source. Rule as the data show it: active = GI50 up to about 1.1 µM and inactive = higher.

Some test systems named below: NCI/ADR-RES; HOP-18; OVCAR-8; SR; UO-31; SK-OV-3; KM-20L2; NCI-H226; SK-MEL-2; T47D; MOLT-4; DU-145; MDA-MB-231; HL-60; NCI-H522; SW-620; SK-MEL-5; LXFL 529; HOP-92; SK-MEL-28.
What all share (assay): DTP human tumour cell line panel, 48 h

For the compound `Cc1c2cc[n+](C)cc2c(C)c2c1sc1ccccc12`, the GI50 is 18900 nM (inactive) in the assay with NCI/ADR-RES; 9140 nM (inactive) in the assay with HOP-18; 330 nM (active) in the assay with OVCAR-8; 246 nM (active) in the assay with SR; 8690 nM (inactive) with UO-31; 1490 nM (inactive) in the assay with SK-OV-3. The GI50 in the assay on KM-20L2 was 2040 nM (inactive); in the assay with NCI-H226, 383 nM (active); with SK-MEL-2 it was 2900 nM (inactive); in the assay on T47D, 798 nM (active); in the assay on MOLT-4 it was 131 nM (active); in the assay on DU-145 it was 1480 nM (inactive). Besides, the GI50 with MDA-MB-231 was 2390 nM (inactive); with HL-60, 3330 nM (inactive); in the assay with NCI-H522 it was 661 nM (active); with SW-620, 553 nM (active); with SK-MEL-5 it was 1390 nM (inactive); in the assay on LXFL 529, 456 nM (active). The GI50 with HOP-92 is 1300 nM (inactive); in the assay with SK-MEL-28, 2450 nM (inactive).

Regarding `CN(C)C(=S)/N=c1\ssc(=S)n1Cc1ccco1`, the GI50 in the assay with HOP-18 is 82200 nM (inactive); with OVCAR-8 it was 3790 nM (inactive); in the assay on SR it was 1970 nM (inactive); in the assay on UO-31 it was 5570 nM (inactive); in the assay with SK-OV-3 it was 1710 nM (inactive); with KM-20L2 it was 1930 nM (inactive). Further, the GI50 in the assay with NCI-H226 is 12000 nM (inactive); in the assay on SK-MEL-2, 2370 nM (inactive); with T47D, 571 nM (active); in the assay on MOLT-4, 2090 nM (inactive); in the assay with MDA-MB-231, 10400 nM (inactive); in the assay on HL-60, 379 nM (active). Also, the GI50 in the assay with NCI-H522 was 249 nM (active); with SW-620 it was 701 nM (active); with SK-MEL-5, 1220 nM (inactive); with LXFL 529, 3480 nM (inactive); in the assay with HOP-92, > 100000 nM (inactive); in the assay with SK-MEL-28 it was 8070 nM (inactive).
